Measurements published in patent US7396830B2, “Piperazine amidines as antiviral agents” (priority 2005, dated 2008).

Test system: HIV-1
Assay: Single-round infectious HIV-1 luciferase reporter virus infection of HeLa CD4 cells
Assay type: cell-based
Details: Human immunodeficiency virus 1, HeLa, 72 h, read-out: EC50 Group from Table 1
Method: • Virus production—Human embryonic Kidney cell line, 293T, was propagated in Dulbecco's Modified Eagle Medium (Invitrogen, Carlsbad, Calif.) containing 10% fetal Bovine serum (FBS, Sigma, St. Louis, Mo.). • Virus infection—Human epithelial cell line, HeLa, expressing the HIV-1 receptor CD4 was propagated in Dulbecco's Modified Eagle Medium (Invitrogen, Carlsbad, Calif.) containing 10% fetal Bovine serum (FBS, Sigma, St. Louis , Mo.) and supplemented with 0.2 mg/mL Geneticin (Invitrogen, Carlsbad, Calif.). Virus-Single-round infectious reporter virus was produced by co-transfecting human embryonic Kidney 293 cells with an HIV-1 envelope DNA expression vector and a proviral cDNA containing an envelope deletion mutation and the luciferase reporter gene inserted in place of HIV-1 nef sequences (Chen et al, Ref. 41). Transfections were performed using lipofectAMINE PLUS reagent as described by the manufacturer (Invitrogen, Carlsbad, Calif.). Experiment • 1. HeLa CD4 cells were plated in 96 well plates at a cell density of 1×10^4 cells per well in 100 μl Dulbecco's Modified Eagle Medium containing 10% fetal Bovine serum and incubated overnight. • 2. Compound was added in a 2 μl dimethylsulfoxide solution, so that the final assay concentration would be ≦10 μM. • 3. 100 μl of single-round infectious reporter virus in Dulbecco's Modified Eagle Medium was then added to the plated cells and compound at an approximate multiplicity of infection (MOI) of 0.01, resulting in a final volume of 200 μl per well. • 4. Virally-infected cells were incubated at 37 degrees Celsius, in a CO2 incubator, and harvested 72 h after infection. • 5. Viral infection was monitored by measuring luciferase expression from viral DNA in the infected cells using a luciferase reporter gene assay kit, as described by the manufacturer (Roche Molecular Biochemicals, Indianapolis, Ind.). Infected cell supernatants were removed and 50 μl of lysis buffer was added per well. After 15 minutes, 50 μl of freshly-reconstituted luciferase assay reagent was added per well. Luciferase activity was then quantified by measuring luminescence using a Wallac microbeta scintillation counter. • 6. The percent inhibition for each compound was calculated by quantifying the level of luciferase expression in cells infected in the presence of each compound as a percentage of that observed for cells infected in the absence of compound and subtracting such a determined value from 100. • 7. An EC50 provides a method for comparing the antiviral potency of the compounds of this disclosure. The effective concentration for fifty percent inhibition (EC50) was calculated with the Microsoft Excel Xlfit curve fitting software. For each compound, curves were generated from percent inhibition calculated at 10 different concentrations by using a four paramenter logistic model (model 205). Table 1 is the key for the data in Table 2. Results

COc1cnc(-n2cnc(C)n2)c2[nH]cc(C(=O)C(=O)N3CCN(/C(=N/C#N)c4ccccn4)CC3)c12 [AM-82]
EC50: < 500 nM
